Measured values published in patent US6486196B2, “Anticancer compounds: process for their preparation and pharmaceutical compositions containing them” (Dr. Reddy's Research Foundation, priority 2000, dated 2002).

What was measured:
HIV-1/MN = experiment: Anti HIV activity in PM-1 cells (P24 ELISA, MTT corrected); assay type: cell-based; conditions: 1 μM; PM-1 cells infected with HIV-1/MN, 96 h, P24 antigen corrected by MTT
Method: Human CD^4+ T cell line PM-1 used in the assay was cultured in RPMI-1640 medium containing 10% Fetal bovine serum, 2 g/L sodium bicarbonate, 100,000 units/L Pencillin-G and 100 mg/L streptomycin. Healthy PM-1 cells were plated on the first day in a 96 well plate at 2×10^6 cells per well. After 24 h HIV-1/MN was added to the culture and incubated for 2 h for infection. Cells were washed twice with PBS to remove the virus in the culture. Different concentrations of DRF compounds ranging from 10−^4 to 10^−8 M were added to the culture and incubated for 96 h. The viability of cells was then assessed by standard MTT assay and the viral antigen P24 levels were estimated by ELISA method. Based on the MTT assay values the P 24 antigen values were corrected.
All the samples were tested in triplicates and the average was used for calculations. AZT was used as standard compound for comparision.

KB = KB cells; cited from earlier work
[1] = test system: P388 lymphocytic leukemia; conditions: P388 cells; cited from earlier work
MCF-7/ADR = experiment: Sulforhodamine B growth inhibition, breast MCF-7/ADR; assay type: cell-based, human; conditions: Homo sapiens, NCI/ADR-RES, 48 h, SRB, read-out: GROWTH INHIBITION (GI 50)
Method: (§1) Each test compound was screened against a battery of cell lines representing eight different types of cancers. In a typical procedure, 1×10^4 cells were seeded into each well of 96 well plate in 100 μL volume of RPMI 1640 medium containing antibiotics and 10% FCS.
(§2) The plates were incubated at 37° C. in presence of CO2. After 24 h, test compounds were evaluated at five 10 fold dilutions ranging from 100 to 0.01 μM. To each test well 100 μL of test compound solution was added and medium with vehicle was added to control wells and the plates were further incubated. After 48 h of incubation, plates were terminated by Sulforhodamine B method.
(§3) The optical density which is proportional to protein mass, is then read by automated spectrophotometric plate reader at a wavelength of 515 nm.

MCF7 = experiment: Sulforhodamine B growth inhibition, breast MCF7; assay type: cell-based, human; conditions: Homo sapiens, 48 h, SRB, read-out: GROWTH INHIBITION (GI 50)
Method: as §1, §2, §3

U251 = experiment: Sulforhodamine B growth inhibition, CNS U251; assay type: cell-based, human; conditions: Homo sapiens, U-251, 48 h, SRB, read-out: GROWTH INHIBITION (GI 50)
Method: as §1, §2, §3

SW-620 = experiment: Sulforhodamine B growth inhibition, colon SW-620; assay type: cell-based, human; conditions: Homo sapiens, 48 h, SRB, read-out: GROWTH INHIBITION (GI 50)
Method: as §1, §2, §3

HT29 = experiment: Sulforhodamine B growth inhibition, colon HT29; assay type: cell-based, human; conditions: Homo sapiens, HT-29, 48 h, SRB, read-out: GROWTH INHIBITION (GI 50)
Method: as §1, §2, §3

H522 = experiment: Sulforhodamine B growth inhibition, lung H522; assay type: cell-based, human; conditions: Homo sapiens, NCI-H522, 48 h, SRB, read-out: GROWTH INHIBITION (GI 50)
Method: as §1, §2, §3

UACC62 = experiment: Sulforhodamine B growth inhibition, melanoma UACC62; assay type: cell-based, human; conditions: Homo sapiens, UACC-62, 48 h, SRB, read-out: GROWTH INHIBITION (GI 50)
Method: as §1, §2, §3

SKOV-3 = experiment: Sulforhodamine B growth inhibition, ovarian SKOV-3; assay type: cell-based, human; conditions: Homo sapiens, SK-OV-3, 48 h, SRB, read-out: GROWTH INHIBITION (GI 50)
Method: as §1, §2, §3

PA1 = experiment: Sulforhodamine B growth inhibition, ovarian PA1; assay type: cell-based, human; conditions: Homo sapiens, PA-1, 48 h, SRB, read-out: GROWTH INHIBITION (GI 50)
Method: as §1, §2, §3

A498 = experiment: Sulforhodamine B growth inhibition, renal A498; assay type: cell-based, human; conditions: Homo sapiens, 48 h, SRB, read-out: GROWTH INHIBITION (GI 50)
Method: as §1, §2, §3

DU145 = experiment: Sulforhodamine B growth inhibition, prostate DU145; assay type: cell-based, human; conditions: Homo sapiens, DU-145, 48 h, SRB, read-out: GROWTH INHIBITION (GI 50)
Method: as §1, §2, §3

PC-3 = experiment: Sulforhodamine B growth inhibition, prostate PC-3; assay type: cell-based, human; conditions: Homo sapiens, 48 h, SRB, read-out: GROWTH INHIBITION (GI 50)
Method: as §1, §2, §3

ACHN = experiment: Sulforhodamine B growth inhibition, renal ACHN; assay type: cell-based; conditions: Homo sapiens, 48 h, SRB, read-out: GROWTH INHIBITION (GI 50)
Method: as §1, §2, §3

## Cc1cn([C@H]2C[C@H](N=[N+]=[N-])[C@@H](CO)O2)c(=O)[nH]c1=O [AZT, reference compound]
HIV-1/MN
  Percentage Inhibition: 72.47%

## C=C1CC[C@@H]2[C@](C)(CO)[C@H](O)CC[C@@]2(C)[C@@H]1C/C=C1/C(=O)OC[C@H]1O [Andrographolide]
KB
  cytotoxic activity: potent cytotoxic activity
[1]
  cytotoxic activity: potent cytotoxic activity

## C=C1CC[C@@H]2[C@]3(C)COC(C)(C)O[C@@H]3CC[C@@]2(C)[C@@H]1C/C=C1/C(=O)OC[C@H]1O [Example 1, 3,19-isopropylidene andrographolide]
MCF-7/ADR
  GI50: 2 µM
MCF7
  GI50: 13 µM
U251
  GI50: 4 µM
SW-620
  GI50: 5 µM
HT29
  GI50: 2 µM
H522
  GI50: 14 µM
UACC62
  GI50: 4 µM
SKOV-3
  GI50: 8 µM
PA1
  GI50: 2 µM
A498
  GI50: 13 µM
other
  melting point: 194.5 °C

## C=C1CCC2[C@]3(C)COC(c4ccccc4)O[C@@H]3CC[C@]2(C)[C@H]1C/C=C1/C(=O)OC[C@H]1O (some centres unmarked) [Example 2, 3,19-Benzylidene andrographolide]
other
  melting point: 142 to 143 °C

## C=C1CCC2[C@]3(C)COC(C)(c4ccccc4)O[C@@H]3CC[C@]2(C)[C@H]1C/C=C1/C(=O)OC[C@H]1O (some centres unmarked) [Example 3, 3,19-(1-Phenylethylidene)andrographolide]
MCF-7/ADR
  GI50: 2 µM
MCF7
  GI50: 12 µM
U251
  GI50: 2 µM
SW-620
  GI50: 5 µM
HT29
  GI50: 2 µM
H522
  GI50: 12 µM
UACC62
  GI50: 3 µM
SKOV-3
  GI50: 5 µM
PA1
  GI50: 19 µM
A498
  GI50: 3 µM
other
  melting point: 201 to 203 °C

## C=C1CCC2[C@]3(C)COC(C)(C)O[C@@H]3CC[C@]2(C)[C@H]1C/C=C1/C(=O)OC[C@H]1OC(=O)[C@H](CCSC)NC(=O)OC(C)(C)C (some centres unmarked) [Example 4, 3,19-isopropylidene-14-(N-Boc-methionyl)andrographolide]
other
  melting point: 70 °C

## C=C1CCC2[C@](C)(CO)[C@H](O)CC[C@]2(C)[C@H]1C/C=C1/C(=O)OC[C@H]1OC(C)=O (some centres unmarked) [Example 7, 14-acetyl andrographolide]
other
  melting point: 169 °C

## C=C1CCC2[C@](C)(CO)[C@H](O)CC[C@]2(C)[C@H]1C/C=C1/C(=O)OC[C@H]1OC(=O)Nc1ccccc1 (some centres unmarked) [Example 9, 14-phenylcarbamoyl andrographolide]
MCF-7/ADR
  GI50: 0.4 µM
MCF7
  GI50: 2.5 µM
U251
  GI50: 6.5 µM
SW-620
  GI50: 2.5 µM
HT29
  GI50: 4 µM
H522
  GI50: 12 µM
UACC62
  GI50: 3 µM
SKOV-3
  GI50: 3 µM
DU145
  GI50: 6 µM
PC-3
  GI50: 3 µM
ACHN
  GI50: 5 µM
other
  melting point: 120 °C

## C=C1CCC2[C@](C)(CO)[C@H](O)CC[C@]2(C)[C@H]1C/C=C1/C(=O)OC[C@H]1OC(=O)NC(C)C (some centres unmarked) [Example 10, 14-(N-isopropyl)carbamoyl andrographolide]
other
  melting point: 122 °C
